Measurements published in ChEMBL document CHEMBL1142884, “Inhibition of horseradish peroxidase catalytic activity by new 3-phenylcoumarin derivatives: synthesis and structure-activity relationships” (Bioorg Med Chem, 2007).

What was measured:
[1] = DPPH radical scavenging activity; assay type: functional
[2] = Inhibition of horseradish peroxidase catalytic activity by luminol-enhanced chemiluminescence assay; parameters: species or system Armoracia rusticana

IC50 [1] | IC50 [2] | SMILES
24.9 µM | 24.6 µM | O=c1oc2ccc(O)cc2cc1-c1ccccc1O
26.8 µM | 2.8 µM | O=c1oc2ccc(O)cc2cc1-c1ccc(O)c(O)c1
9.8 µM | 1.2 µM | O=c1oc2cc(O)c(O)cc2cc1-c1ccc(O)c(O)c1
13.2 µM | 3.4 µM | O=c1oc2cc(O)c(O)cc2cc1-c1ccc2c(c1)OCO2
– | 28.2 µM | CC(=O)Oc1ccc(-c2cc3cc(OC(C)=O)c(OC(C)=O)cc3oc2=O)cc1OC(C)=O
